We go through 16 compounds from patent publication US20260015358A1, “BICYCLIC DERIVATIVES, COMPOSITIONS AND USES THEREOF” (Danatlas Pharmaceuticals Co., Ltd., priority 2023, published 2026).

SMILES strings stand for the structures. pIC50: −log10 of the molar value.

What is called pIC50 is −log10 of the IC50, conventionally taken in molar units. A higher pIC50 goes with a small IC50.

Test [1] concerns the target T1, WRN [UniPro: Q14191 (WRN_HUMAN), N500-C946] (Homo sapiens (Human), UniProt Q14191). In words: WRN unwinding assay (FORKF DNA, fluorescence). The class given is biochemical. Particulars: Table 14.
Test [2] deals with T1, WRN [UniPro: Q14191 (WRN_HUMAN), N500-C946]. Nature of the test: WRN ATPase assay (ADP-Glo). Particulars: WRN enzymatic activity assay. The class given is biochemical. The protocol:
WRN ATPase assay was initiated to evaluate potential inhibitory effect of compounds for ATP hydrolysis activity of WRN protein. WRN [UniPro: Q14191 (WRN_HUMAN), N500-C946] was expressed and purified in insect system and stored at −80° C. in aliquots. […] ADP quantity produced from ATP hydrolysis by WRN catalytic reaction was measured using a commercially available ADP-Glo Assay (ADP-Glo™ Kinase Assay from Promega, 10000 assays, #V9102). […] Compounds dissolved in DMSO (Sigma, D8418) were plated into a 96-well intermediate plate (BioFil, VWP-032-096) for 3-fold serial titration for 10 points using DMSO, and well-to-well transfer the titrated compounds into another 96-well intermediate plate including assay buffer in advance. Shake the 96-well intermediate plate at 600 rpm for 10 min to fully mix. Specifically, a 4× working mixture of WRN was diluted to a concentration of 8 nM in assay buffer. […] After centrifuging at 1000 rpm and shaking at 500 rpm, the assay plate was pre-incubated for 30 min. Then, 5 μL 2×FORKF DNA and ATP working mixture was dispensed into assay plate. Plate was sealed, centrifuged and incubated for an additional 40 min. at 37° C. The reaction was stopped with the addition of 10 μL of the first ADP-Glo reagent and incubated for 40 min. to remove the excess amount of ATP. Afterwards, 20 μL of ATP detection reagent was added and incubated for 30 min. before reading. Luminescence output was recorded using BMG CLARIO star plus reader. Each concentration of compound was tested in duplicates in the assay plate. Average luminescence signal of high control (Wells with 1% DMSO) was calculated as High Control (HC). Average luminescence signal of low control (Wells with no WRN protein) was calculated as Low control (LC).
IC50 values were determined by fitting the data to the standard 4 parameters with Hill Slope using GraphPad Prism software.

T1 sequence (Q14191 500-946): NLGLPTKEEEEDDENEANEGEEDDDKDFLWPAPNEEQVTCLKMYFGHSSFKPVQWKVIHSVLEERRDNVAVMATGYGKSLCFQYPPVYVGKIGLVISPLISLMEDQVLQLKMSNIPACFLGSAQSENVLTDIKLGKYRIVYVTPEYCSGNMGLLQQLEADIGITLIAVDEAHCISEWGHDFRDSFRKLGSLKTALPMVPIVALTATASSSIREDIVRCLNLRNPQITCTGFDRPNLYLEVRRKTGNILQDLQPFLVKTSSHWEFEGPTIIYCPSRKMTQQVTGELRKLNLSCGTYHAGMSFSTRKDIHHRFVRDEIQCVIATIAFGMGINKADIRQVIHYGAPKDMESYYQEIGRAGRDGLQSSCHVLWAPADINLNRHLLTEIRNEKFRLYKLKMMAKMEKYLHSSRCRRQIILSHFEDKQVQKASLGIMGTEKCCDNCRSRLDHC

Take `CCC(=O)NS(=O)(=O)N1CCN(c2c(CC)n(CC(=O)Nc3ccc(C(F)(F)F)cc3Cl)c3nc(C4=CCOCC4)nn3c2=O)CC1` [Example 29, N-((4-(4-(2-((2-Chloro-4-(trifluoromethyl)phenyl)amino)-2-oxoethyl)-2-(3,6-dihydro-2H-pyran-4-yl)-5-ethyl-7-oxo-4,7-dihydro-[1,2,4]triazolo[1,5-a]pyrimidin-6-yl)piperazin-1-yl)sulfonyl) propionamide]: the pIC50 in test [1] and in test [2] was greater than 7.00 in each case.
As for `CCc1c(N2CCN(C(=O)Nc3[nH]cnc3C(F)(F)F)CC2)c(=O)n2nc(C3=CCOCC3)nc2n1CC(=O)Nc1ccc(C(F)(F)F)cc1Cl` [Example 30, 4-(4-(2-((2-Chloro-4-(trifluoromethyl)phenyl)amino)-2-oxoethyl)-2-(3,6-dihydro-2H-pyran-4-yl)-5-ethyl-7-oxo-4,7-dihydro-[1,2,4]triazolo[1,5-a]pyrimidin-6-yl)-N-(4-(trifluoromethyl)-1H-imidazol-5-yl)piperazine-1-carboxamide], the values for the pIC50 in test [1] and in test [2] were greater than 7.00 and 6.00 to 7.00, respectively.
Regarding `CCc1c(N2CCN(C(=O)c3[nH]cnc3C(F)(F)F)CC2)c(=O)n2nc(C3=CCOCC3)nc2n1CC(=O)Nc1ccc(C(F)(F)F)cc1Cl` [Example 31, N-(2-Chloro-4-(trifluoromethyl)phenyl)-2-(2-(3,6-dihydro-2H-pyran-4-yl)-5-ethyl-7-oxo-6-(4-(4-(trifluoromethyl)-1H-imidazole-5-carbonyl)piperazin-1-yl)-[1,2,4]triazolo[1,5-a]pyrimidin-4(7H)-yl)acetamide], the pIC50 in test [1] is greater than 7.00; in test [2], 6.00 to 7.00.
Take `CCc1c(N2CCN(C(=O)c3ncsc3N)CC2)c(=O)n2nc(C3=CCOCC3)nc2n1CC(=O)Nc1ccc(C(F)(F)F)cc1Cl` [Example 32, 2-(6-(4-(5-Aminothiazole-4-carbonyl)piperazin-1-yl)-2-(3,6-dihydro-2H-pyran-4-yl)-5-ethyl-7-oxo-[1,2,4]triazolo[1,5-a]pyrimidin-4(7H)-yl)-N-(2-chloro-4-(trifluoromethyl)phenyl)acetamide]: the figures for the pIC50 in test [1] and in test [2] were greater than 7.00 and 6.00 to 7.00, respectively.
On to `CCC(=O)N(C(=O)Cn1c(CC)c(N2CCN(S(N)(=O)=O)CC2)c(=O)n2nc(C3=CCOCC3)nc12)c1ccc(C(F)(F)F)cc1Cl` [Example 35, N-(2-Chloro-4-(trifluoromethyl)phenyl)-N-(2-(2-(3,6-dihydro-2H-pyran-4-yl)-5-ethyl-7-oxo-6-(4-sulfamoylpiperazin-1-yl)-[1,2,4]triazolo[1,5-a]pyrimidin-4(7H)-yl)acetyl)propionamide], for which the pIC50 in test [1] and in test [2] was 6.00 to 7.00 in each case.
As to `CCc1c(N2CCN(C(=O)CNC(=O)OC(C)(C)C)CC2)c(=O)n2nc(C3=CCOCC3)nc2n1CC(=O)Nc1ccc(C(F)(F)F)cc1Cl` [Example 37, tert-Butyl (2-(4-(4-(2-((2-chloro-4-(trifluoromethyl)phenyl)amino)-2-oxoethyl)-2-(3,6-dihydro-2H-pyran-4-yl)-5-ethyl-7-oxo-4,7-dihydro-[1,2,4]triazolo[1,5-a]pyrimidin-6-yl)piperazin-1-yl)-2-oxoethyl)carbamate], the values for the pIC50 in test [1] and in test [2] were 6.00 to 7.00 and greater than 7.00, respectively.
For `CCNC(=O)NCC(=O)N1CCN(c2c(CC)n(CC(=O)Nc3ccc(C(F)(F)F)cc3Cl)c3nc(C4=CCOCC4)nn3c2=O)CC1` [Example 41, N-(2-Chloro-4-(trifluoromethyl)phenyl)-2-(2-(3,6-dihydro-2H-pyran-4-yl)-5-ethyl-6-(4-((ethylcarbamoyl)glycyl)piperazin-1-yl)-7-oxo-[1,2,4]triazolo[1,5-a]pyrimidin-4(7H)-yl)acetamide] the same measures were greater than 7.00 and greater than 7.00.
For `CCc1c(N2CCN(C(=O)c3cnc4[nH]ccc4c3O)CC2)c(=O)n2nc(C3=CCOCC3)nc2n1CC(=O)Nc1ccc(C(F)(F)F)cc1Cl` [Example 42, N-(2-Chloro-4-(trifluoromethyl)phenyl)-2-(2-(3,6-dihydro-2H-pyran-4-yl)-5-ethyl-6-(4-(4-hydroxy-1H-pyrrolo[2,3-b]pyridine-5-carbonyl)piperazin-1-yl)-7-oxo-[1,2,4]triazolo[1,5-a]pyrimidin-4(7H)-yl)acetamide] the same measures were greater than 7.00 and greater than 7.00.
Take `CCc1c(N2CCN(C(=O)c3c[nH]c(=O)n(C)c3=O)CC2)c(=O)n2nc(C3=CCOCC3)nc2n1CC(=O)Nc1ccc(C(F)(F)F)cc1Cl` [Example 43, N-(2-Chloro-4-(trifluoromethyl)phenyl)-2-(2-(3,6-dihydro-2H-pyran-4-yl)-5-ethyl-6-(4-(3-methyl-2,4-dioxo-1,2,3,4-tetrahydropyrimidine-5-carbonyl)piperazin-1-yl)-7-oxo-[1,2,4]triazolo[1,5-a]pyrimidin-4(7H)-yl)acetamide]: the pIC50 in test [1] is greater than 7.00; in test [2] it was 6.00 to 7.00.
As to `CCc1c(N2CCN(C(=O)c3ncnc4c(Cl)c[nH]c34)CC2)c(=O)n2nc(C3=CCOCC3)nc2n1CC(=O)Nc1ccc(C(F)(F)F)cc1Cl` [Example 44, N-(2-Chloro-4-(trifluoromethyl)phenyl)-2-(6-(4-(7-chloro-5H-pyrrolo[3,2-d]pyrimidine-4-carbonyl)piperazin-1-yl)-2-(3,6-dihydro-2H-pyran-4-yl)-5-ethyl-7-oxo-[1,2,4]triazolo[1,5-a]pyrimidin-4(7H)-yl)acetamide], the pIC50 in test [1] and in test [2] was 6.00 to 7.00 each time.
As to `CCc1c(N2CCN(C(=O)c3cnc4ccsc4c3O)CC2)c(=O)n2nc(C3=CCOCC3)nc2n1CC(=O)Nc1ccc(C(F)(F)F)cc1Cl` [Example 45, N-(2-Chloro-4-(trifluoromethyl)phenyl)-2-(2-(3,6-dihydro-2H-pyran-4-yl)-5-ethyl-6-(4-(7-hydroxythieno[3,2-b]pyridine-6-carbonyl)piperazin-1-yl)-7-oxo-[1,2,4]triazolo[1,5-a]pyrimidin-4(7H)-yl)acetamide], the negative logarithm of the IC50 (pIC50) in test [1] and in test [2] was greater than 7.00 throughout.
As to `CCc1c(N2CCN(C(=O)c3ncc(F)cc3N)CC2)c(=O)n2nc(C3=CCOCC3)nc2n1CC(=O)Nc1ccc(C(F)(F)F)cc1Cl` [Example 46, 2-(6-(4-(3-Amino-5-fluoropicolinoyl)piperazin-1-yl)-2-(3,6-dihydro-2H-pyran-4-yl)-5-ethyl-7-oxo-[1,2,4]triazolo[1,5-a]pyrimidin-4(7H)-yl)-N-(2-chloro-4-(trifluoromethyl)phenyl)acetamide], the pIC50 was greater than 7.00 in test [1] and 6.00 to 7.00 in test [2].
Regarding `CCc1c(N2CCN(C(=O)c3n[nH]c(=O)cc3O)CC2)c(=O)n2nc(C3=CCOCC3)nc2n1CC(=O)Nc1ccc(C(F)(F)F)cc1Cl` [Example 48, N-(2-Chloro-4-(trifluoromethyl)phenyl)-2-(2-(3,6-dihydro-2H-pyran-4-yl)-5-ethyl-6-(4-(4-hydroxy-6-oxo-1,6-dihydropyridazine-3-carbonyl)piperazin-1-yl)-7-oxo-[1,2,4]triazolo[1,5-a]pyrimidin-4(7H)-yl)acetamide], the pIC50 in test [1] and in test [2] was greater than 7.00 each time.
Take `CCc1c(N2CCN(C(=O)c3cnc4scnc4c3O)CC2)c(=O)n2nc(C3=CCOCC3)nc2n1CC(=O)Nc1ccc(C(F)(F)F)cc1Cl` [Example 49, N-(2-Chloro-4-(trifluoromethyl)phenyl)-2-(2-(3,6-dihydro-2H-pyran-4-yl)-5-ethyl-6-(4-(7-hydroxythiazolo[5,4-b]pyridine-6-carbonyl)piperazin-1-yl)-7-oxo-[1,2,4]triazolo[1,5-a]pyrimidin-4(7H)-yl)acetamide]: the pIC50 in test [1] and in test [2] was greater than 7.00 throughout.
For `CCc1c(N2CCN(C(=O)c3c[nH]c(=O)[nH]c3=O)CC2)c(=O)n2nc(C3=CCOCC3)nc2n1CC(=O)Nc1ccc(C(F)(F)F)cc1Cl` [Example 50, N-(2-Chloro-4-(trifluoromethyl)phenyl)-2-(2-(3,6-dihydro-2H-pyran-4-yl)-6-(4-(2,4-dioxo-1,2,3,4-tetrahydropyrimidine-5-carbonyl)piperazin-1-yl)-5-ethyl-7-oxo-[1,2,4]triazolo[1,5-a]pyrimidin-4(7H)-yl)acetamide], the values for the negative-log IC50 (pIC50) in test [1] and in test [2] were 6.00 to 7.00 and greater than 7.00, respectively.
`CCOC(=O)c1cnc2oc(C(=O)N3CCN(c4c(CC)n(CC(=O)Nc5ccc(C(F)(F)F)cc5Cl)c5nc(C6=CCOCC6)nn5c4=O)CC3)cc2c1O` [Example 53, Ethyl 2-(4-(4-(2-((2-chloro-4-(trifluoromethyl)phenyl)amino)-2-oxoethyl)-2-(3,6-dihydro-2H-pyran-4-yl)-5-ethyl-7-oxo-4,7-dihydro-[1,2,4]triazolo[1,5-a]pyrimidin-6-yl)piperazine-1-carbonyl)-4-hydroxyfuro[2,3-b]pyridine-5-carboxylate]: the pIC50 in test [1] is 6.00 to 7.00; in test [2], greater than 7.00.
